Reference: PubChem BioAssay (NCI)
Where “and” joins values, the source holds several entries; their conditions need not be identical. Equal entries are not always repeated.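 Where inhibition never reached the appropriate level, the endpoint shown equals the highest concentration tested. Otherwise, values were interpolated linearly from a five-concentration, 48-hour dose response in 96-well plates. GI50 is the concentration that inhibits growth by half. The concentration for full growth arrest is given as TGI.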

Experiments:
Test in all cases: NCI-60 cell line screen, 48 h
EKVX NSCLC = test system: EKVX NSCLC
786-0 renal = test system: 786-0 renal
SR leukemia = test system: SR leukemia
PC-3 prostate = test system: PC-3 prostate
COLO 205 colon = test system: COLO 205 colon
CAKI-1 renal = test system: CAKI-1 renal
RPMI-8226 leukemia = test system: RPMI-8226 leukemia
HT29 colon = test system: HT29 colon
HL-60(TB) leukemia = test system: HL-60(TB) leukemia
MDA-MB-231 breast = test system: MDA-MB-231 breast

SMILES	GI50 (EKVX NSCLC)	TGI (EKVX NSCLC) [µM]	GI50 (786-0 renal)	TGI (786-0 renal)	GI50 (SR leukemia)	TGI (SR leukemia)	GI50 (PC-3 prostate)	TGI (PC-3 prostate)	GI50 (COLO 205 colon)	TGI (COLO 205 colon)	GI50 (CAKI-1 renal)	TGI (CAKI-1 renal)	GI50 (RPMI-8226 leukemia)	TGI (RPMI-8226 leukemia)	GI50 (HT29 colon)	TGI (HT29 colon)	GI50 (HL-60(TB) leukemia)	TGI (HL-60(TB) leukemia)	GI50 (MDA-MB-231 breast)	TGI (MDA-MB-231 breast)
O=C1Nc2ccc(I)cc2/C1=C/c1cc(Br)c(O)c(Br)c1	> 17.5 µM and 13.8 µM	> 84.1	> 24.1 µM and 18.2 µM	> 25 µM and 45.5 µM	> 49.5 µM	98.9 µM	> 17.7 µM and 23.3 µM	> 74.7 µM	24.3 µM and 18.3 µM	> 25 µM and 71.4 µM	> 15.9 µM and 14.9 µM	> 25 µM and 72 µM	15.3 µM and 6.81 µM	> 100 µM	> 20.6 µM and 13.5 µM	> 25 µM and 52.5 µM	> 47.8 µM	> 100 µM	> 20.4 µM and 16.1 µM	> 25 µM and 44.2 µM
CCCN1CCCC(c2ccc(Nc3nc(Nc4cc(F)ccc4C(N)=O)c4cc[nH]c4n3)c(OC)c2)C1 (centres undefined)	0.862 µM	5.19	2.84 µM	6.29 µM	0.0112 µM	7.99 µM	4.17 µM	9.6 µM	0.015 µM	1.23 µM	3.17 µM	8.63 µM	3.65 µM	10.8 µM	0.0108 µM	3.15 µM	0.0156 µM	4.82 µM	3.28 µM	7.7 µM
COC(=O)[C@@H](C)C[C@H](Cc1ccccc1)NC(=O)c1nc([C@@H](C[C@H](C(C)C)N(C)C(=O)[C@@H](NC(=O)[C@H]2CC(=O)CCN2C)C(C)C)OC(C)=O)sc1C(C)C	0.953 µM	> 16.7	0.347 µM	8.82 µM	0.021 µM	> 16.7 µM	0.129 µM	> 16.7 µM	0.208 µM	1.69 µM	0.499 µM	> 16.7 µM	0.056 µM	4.38 µM	0.146 µM	> 6.97 µM	0.0529 µM	0.227 µM	0.373 µM	3.28 µM
CC1(C)CCC(c2ccc(Cl)cc2)=C(CN2CCN(c3ccc(C(=O)NS(=O)(=O)c4ccc(N[C@H](CCN5CCOCC5)CSc5ccccc5)c(S(=O)(=O)C(F)(F)F)c4)cc3)CC2)C1	1.43 µM	3.24	1.88 µM	3.4 µM	2.34 µM	> 25.9 µM	1.68 µM	4.5 µM	1.24 µM	2.68 µM	1.72 µM	4.09 µM	0.342 µM	4.33 µM	1.91 µM	3.97 µM	0.568 µM	3.84 µM	0.642 µM	2.17 µM
CCCCCCCCCCCCNC(=O)N[C@H](C(=O)N[C@H]1/C=C/OCCNC(=O)/C=C/[C@H](C(C)C)NC1=O)C(C)C	36.6 µM	> 100	40.1 µM	> 100 µM	0.393 µM	20.9 µM	0.682 µM	> 100 µM	20 µM	> 57.4 µM	> 100 µM	> 100 µM	0.389 µM	59.4 µM	0.599 µM	65.4 µM	14.7 µM	55.7 µM	11.7 µM	49.3 µM
C/C=C/C(C/C=C(\C)CO[Si](C)(C)C(C)(C)C)O[Si](C)(C)C(C)(C)C (centres undefined)	–	> 100	–	> 100 µM	–	> 100 µM	–	> 100 µM	–	> 100 µM	–	> 100 µM	–	> 100 µM	–	> 100 µM	–	> 100 µM	–	> 100 µM
CCN(CC)CCN1C(=O)c2cccc3cc(N)cc(c23)C1=O	–	22.8	–	> 100 µM	–	39.8 µM	–	> 100 µM	–	16.8 µM	–	> 100 µM	–	39.8 µM	–	18.1 µM	–	50.5 µM	–	51.9 µM
COc1ncc(-c2ccc3nc(N)n(-c4ccccc4C(F)(F)F)c(=O)c3c2)cc1S(=O)(=O)Nc1ccc(F)cc1F	0.86 µM	> 100	3.16 µM	83.7 µM	1.35 µM	17.3 µM	1.71 µM	73.7 µM	0.511 µM	1.82 µM	0.122 µM	> 100 µM	0.3 µM	2.54 µM	0.635 µM	4.53 µM	1.42 µM	5.24 µM	0.217 µM	0.755 µM
C=C(C)[C@@H]1CC[C@]2(C(=O)OC)CC[C@]3(C)[C@H](CC[C@@H]4[C@@]5(C)CC/C(=N\OCCC(=NCCC#N)NOCCC#N)C(C)(C)[C@@H]5CC[C@]43C)[C@@H]12	4.77 µM	> 50	6.42 µM	16.4 µM	2.87 µM	16.5 µM	2.26 µM	> 50 µM	9.02 µM	> 50 µM	10.2 µM	> 50 µM	4.91 µM	42.7 µM	6.7 µM	26.2 µM	5.18 µM	24.9 µM	10.3 µM	> 50 µM
Nc1c2ccccc2nc2ccccc12	1.78 µM and 3.46 µM	–	2.61 µM and 3.64 µM	11.4 µM and 14.7 µM	0.855 µM and 2.78 µM	6.84 µM and 16.6 µM	2.24 µM and 3.13 µM	9.38 µM and 15.9 µM	0.966 µM and 1.83 µM	2.36 µM and 4.45 µM	1.96 µM and 2.11 µM	5.96 µM	3.26 µM and 1.48 µM	18.6 µM and 5.94 µM	0.98 µM and 1.94 µM	3.23 µM and 7.34 µM	3.05 µM and 1.85 µM	6.99 µM and 10 µM	1.99 µM and 2.51 µM	6.09 µM and 8.37 µM
CN(C)CCCn1c2c(c3ccc(N4CCNCC4)cc3c1=O)C(=O)c1ccccc1-2	1.18 µM	2.93	1.34 µM	2.73 µM	0.307 µM	1.69 µM	0.863 µM	3.79 µM	0.624 µM	2.28 µM	1.05 µM	4.52 µM	0.271 µM	0.978 µM	0.351 µM	1.9 µM	1.17 µM	3.05 µM	0.505 µM	2.05 µM
N#CSc1c[nH]c2cccc(/C=C/C(=O)/C=C(O)/C=C/c3cccc4[nH]cc(SC#N)c34)c12	0.285 µM	2.13	0.684 µM	2.14 µM	0.129 µM	> 33.3 µM	0.136 µM	1.77 µM	0.423 µM	1.07 µM	0.609 µM	1.56 µM	0.128 µM	0.9 µM	0.496 µM	2.05 µM	0.437 µM	1.75 µM	0.553 µM	1.21 µM
COc1ccc2c(c1)OCC1c3cc(OC)ccc3OC21 (centres undefined)	32.6 µM	> 100	> 100 µM	> 100 µM	1.44 µM	29.6 µM	91.2 µM	> 100 µM	38.2 µM	> 100 µM	29.5 µM	> 100 µM	21.5 µM	> 100 µM	34.9 µM	> 100 µM	4.93 µM	> 100 µM	46.4 µM	> 100 µM
